This is an account of results in patent publication US20220298186A1, “BIARYL DIALKYL PHOSPHINE OXIDE FPR2 AGONISTS” (BRISTOL-MYERS SQUIBB COMPANY, priority 2019, published 2022).

One experiment has as its target T1, human FPR1 receptors (Homo sapiens, UniProt P21462).
T1 sequence (P21462 1-350): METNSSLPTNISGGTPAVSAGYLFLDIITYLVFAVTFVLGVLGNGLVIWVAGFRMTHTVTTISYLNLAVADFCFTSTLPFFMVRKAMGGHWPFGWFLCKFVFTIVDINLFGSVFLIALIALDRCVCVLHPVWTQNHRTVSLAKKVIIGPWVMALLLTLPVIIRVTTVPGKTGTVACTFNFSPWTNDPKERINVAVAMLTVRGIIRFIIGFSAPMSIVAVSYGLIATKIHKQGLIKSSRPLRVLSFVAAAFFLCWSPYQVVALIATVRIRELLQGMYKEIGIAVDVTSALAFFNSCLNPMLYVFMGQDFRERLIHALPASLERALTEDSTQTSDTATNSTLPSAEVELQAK
Put plainly: FPR1 cyclic adenosine monophosphate (cAMP) assay. To be noted: CHO cells overexpressing human FPR1; forskolin 10 μM, IBMX 200 μM; 30 min at rt; inhibition of cAMP production (HTRF); read-out: hFPR1 cAMP EC50. The class given is cell-based. The source says: (§1) N-formyl peptide receptors (FPRs) are a family of chemo attractant receptors that facilitate leukocyte response during inflammation. FPRs belong to the seven-transmembrane G protein-coupled receptor superfamily and are linked to inhibitory G-proteins (Gi). Three family members (FPR1, FPR2 and FPR3) have been identified in humans and are predominantly found in myeloid cells with varied distribution and have also been reported in multiple organs and tissues. After agonist binding, the FPRs activate a multitude of physiological pathways, such as intra cellular signaling transduction, Ca^2+ mobilization and transcription. The family interacts with a diverse set of ligands that includes proteins, polypeptides and fatty acid metabolites which activate both pro-inflammatory and pro-resolution downstream responses. FPR2 and FPR1 Cyclic Adenosine Monophosphate (cAMP) Assays were used to measure the activity of the compounds in this patent.
(§2) FPR2 and FPR1 Cyclic Adenosine Monophosphate (cAMP) Assays. A mixture of forskolin (5 μM final for FPR2 or 10 μM final for FPR1) and IBMX (200 μM final) were added to 384-well Proxiplates (Perkin-Elmer) pre-dotted with test compounds in DMSO (1% final) at final concentrations in the range of 0.020 nM to 100 μM. Chinese Hamster Ovary cells (CHO) overexpressing human FPR1 or human FPR2 receptors were cultured in F-12 (Ham's) medium supplemented with 10% qualified FBS, 250 μg/mL zeocin and 300 μg/mL hygromycin (Life Technologies). Reactions were initiated by adding 2,000 human FPR2 cells per well or 4,000 human FPR1 cells per well in Dulbecco's PBS (with calcium and magnesium) (Life Technologies) supplemented with 0.1% BSA (Perkin-Elmer). The reaction mixtures were incubated for 30 min at rt. The level of intracellular cAMP was determined using the HTRF HiRange cAMP assay reagent kit (Cisbio) according to manufacturer's instruction. Solutions of cryptate conjugated anti-cAMP and d2 flurorophore-labelled cAMP were made in a supplied lysis buffer separately. Upon completion of the reaction, the cells were lysed with equal volume of the d2-cAMP solution and anti-cAMP solution. After a 1-h rt incubation, time-resolved fluorescence intensity was measured using the Envision (Perkin-Elmer) at 400 nm excitation and dual emission at 590 nm and 665 nm. A calibration curve was constructed with an external cAMP standard at concentrations ranging from 1 μM to 0.1 μM by plotting the fluorescent intensity ratio from 665 nm emission to the intensity from the 590 nm emission against cAMP concentrations. The potency and activity of a compound to inhibit cAMP production was then determined by fitting to a 4-parametric logistic equation from a plot of cAMP level versus compound concentrations.
(§3) The examples disclosed below were tested in the FPR2 and FPR1 cAMP assay described above and found having FPR2 and/or FPR1 agonist activity. Table 1 below lists EC50 values in the FPR2 and FPR1 cAMP assays measured for the following examples.
A general note: Changes in cAMP serve as a functional read-out for many G protein-coupled receptors.

The target of another experiment is T2, human FPR2 receptors (Homo sapiens, UniProt P25090).
T2 sequence (P25090 1-351): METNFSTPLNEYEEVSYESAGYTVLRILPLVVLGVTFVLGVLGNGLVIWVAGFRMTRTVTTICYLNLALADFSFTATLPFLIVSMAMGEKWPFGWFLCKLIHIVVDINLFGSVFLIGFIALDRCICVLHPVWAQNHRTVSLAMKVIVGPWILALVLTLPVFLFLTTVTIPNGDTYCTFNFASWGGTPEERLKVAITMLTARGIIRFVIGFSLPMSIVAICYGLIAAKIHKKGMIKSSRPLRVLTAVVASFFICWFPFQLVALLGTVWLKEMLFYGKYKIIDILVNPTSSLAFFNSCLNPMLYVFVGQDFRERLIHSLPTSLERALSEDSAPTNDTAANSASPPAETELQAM
Put plainly: FPR2 cyclic adenosine monophosphate (cAMP) assay. Format: cell-based. To be noted: CHO cells overexpressing human FPR2; forskolin 5 μM, IBMX 200 μM; 30 min at rt; inhibition of cAMP production (HTRF); read-out: hFPR2 cAMP2 EC50.
Description: as §1, §2, §3

Bounds are passed on as bounds.

What is called EC50 is the concentration that produces a half-maximal response.

`CP(C)(=O)c1ccccc1-c1ccc(N2CCC[C@@H](NC(=O)Nc3ccc(Cl)cc3F)C2=O)cn1` [Example 19, 1-(4-Chloro-2-fluorophenyl)-3-[(3R)-1-{6-[2-(dimethylphosphoryl)phenyl]pyridin-3-yl}-2-oxopiperidin-3-yl]urea]: the values for the 50% effective concentration (EC50) on human FPR1 receptors and on human FPR2 receptors were 0.14 µM and 0.0167 µM, respectively.
For `CP(C)(=O)c1ccccc1-c1cc(F)c(N2CCC[C@@H](NC(=O)Nc3ncc(Cl)cc3F)C2=O)c(F)c1` [Example 20, 1-(5-Chloro-3-fluoropyridin-2-yl)-3-[(3R)-1-[2′-(dimethylphosphoryl)-3,5-difluoro-[1,1′-biphenyl]-4-yl]-2-oxopiperidin-3-yl]urea], the EC50 was greater than 10 µM on human FPR1 receptors and 0.0432 µM on human FPR2 receptors.
Regarding `CP(C)(=O)c1ccccc1-c1cc(F)c(N2CCC[C@@H](NC(=O)Nc3ccc(OC(F)(F)F)cc3)C2=O)c(F)c1` [Example 21, 3-[(3R)-1-[2′-(Dimethylphosphoryl)-3,5-difluoro-[1,1′-biphenyl]-4-yl]-2-oxopiperidin-3-yl]-1-[4-(trifluoromethoxy)phenyl] urea], the values for the concentration for a half-maximal effect (EC50) at human FPR1 receptors and at human FPR2 receptors were greater than 10 µM and 0.0221 µM, respectively.
